Experimental data taken from publication PMC7466821 (Investigational new drugs, 2017).
“And” between values parts separate entries of the source, which are not always exact repeats. Equal entries are not always repeated.

How the values were obtained:
[1] = system: patients with locally advanced or metastatic SCLC, ovarian cancer or cervical cancer; assay: Phase Ib Part 1: DLT evaluation and RP2D determination; format: in vivo, human; details: IV over 30 min days 1, 8, 15, 22 every 28 days; topotecan 4 mg/m^2 days 1, 8, 15
[2] = system: patients with locally advanced or metastatic SCLC, ovarian and cervical cancers; details: in vivo
[3] = in vivo
[4] = system: patients with advanced solid tumors; details: cited from earlier work
[5] = system: leukemia and lung cancer cell lines; details: cited from earlier work
[6] = system: leukemia xenograft models; details: cited from earlier work
[7] = ME-344 plasma pharmacokinetics, Part 1 cycle 1, noncompartmental; details: ME-344 10 mg/kg IV over 30 min with topotecan, 13 patients, arithmetic mean
[8] = system: patients; details: topotecan monotherapy; cited from earlier work

Cc1c(O)ccc2c1OC[C@@H](c1ccc(O)cc1)[C@H]2c1ccc(O)cc1 [ME-344]
recommended phase II dose (RP2D) of ME-344 in combination with topotecan [1]: 10 mg/kg
patients with SAE related to ME-344 (grade 3 diarrhea) [2]: 1 patient
neurotoxicity ([2]; iv, 10 mg/kg): neurotoxicity was not observed
end-of-infusion concentration on Day 15 lower than on Day 1 [3]: approximately 27%
doses at which DLT (grade 3 or higher peripheral neuropathy) was observed ([4]; IV weekly): 15 to 20 mg/kg and > 10 mg/kg
recommended phase II dose (RP2D), single agent ([4]; IV weekly): 10 mg/kg
duration of prolonged stable disease [4]: 31–52 weeks
patients with prolonged stable disease [4]: 5 patients
duration of partial response ([4]; single patient with SCLC): 52 weeks
cytotoxicity in vitro [5]: cytotoxic
anti-tumor activity [6]: demonstrates anti-tumor activity
t1/2 (terminal half-life) [7]: 5.3 h and 5.301 h

CC[C@@]1(O)C(=O)OCc2c1cc1n(c2=O)Cc2cc3c(CN(C)C)c(O)ccc3nc2-1 [topotecan, reference compound]
SAEs related to topotecan in the additional patients ([2]; human): 6 SAEs
additional patients with SAEs related to topotecan ([2]; human): 5 patients
grade 3/4 hematologic toxicity rate [8]: 16.7%
